The series in a line: Induction period of fat with anti-oxidant. Format: physicochemical. Particulars: calculated on the fat; induction period established at 100° C. An excerpt: Preferably the anti-oxidant is selected from the group consisting of natural and nature-identical anti-oxidants, citric acid, tartaric acid and precursors thereof. The most preferred anti-oxidant is α-tocopherol and mixtures of tocopherols, which are commercially available. Alpha-tocopherol is commonly present as a native anti-oxidant in vegetable fat. About 0.1 wt. % (calculated on the fat) of alpha-tocopherol is sufficient for increasing the induction period of the fat by a factor of 1.5 (effective concentration). The induction period is established at 100° C., using the method described in J. Am. Oil. Chem. Soc. Vol. 63, 6 (1986), 192-195.

`Cc1c(C)c2c(c(C)c1O)CCC(C)(CCCC(C)CCCC(C)CCCC(C)C)O2` (stereo not drawn) [alpha-tocopherol]: the “effective concentration (increasing the induction period of the fat by a factor of 1.5)” value was “About 0.1 wt. %”.

Source of the values: patent US5783247A, “Flavoring composition containing oxidized triglyceride fats, fatty acids, of fatty acid derivatives” (Van Den Berg Foods Co., Division of Conopco, Inc., priority 1993, dated 1998).
